Source: the NIST ThermoML archive (doi:10.1016/j.jct.2016.02.025)

Columns and labels:
[1] = 100 kPa; for speed of sound: Frequency=3 MHz, Sing-around technique in a fixed-path interferometer; for mass density: Vibrating tube method
[2] = refractive index (Na D-line) (dimensionless); conditions: 100 kPa, Standard Abbe refractometry

CCCCCCn1cc[n+](C)c1.[Br-] [3-hexyl-1-methyl-1H-imidazolium bromide]
Liquid
Conditions	mass density, [1] [kg/m3]	refractive index, [2]	speed of sound, [1] [m/s]
293.15 K	1227.46	1.51183	1609.1
298.15 K	1223.74	1.50982	1588.1
303.15 K	1220.31	1.50796	1570.4
308.15 K	1216.69	1.50612	1552.3
313.15 K	1213.05	1.50427	1534.4
318.15 K	1209.41	1.50232	1517.4
323.15 K	1205.58	1.50047	1500

CCCCCCCCn1cc[n+](C)c1.[Br-] [1-methyl-3-octylimidazolium bromide]
Liquid
Conditions	mass density, [1] [kg/m3]	refractive index, [2]	speed of sound, [1] [m/s]
293.15 K	1179.3	1.498	1481.8
298.15 K	1175.69	1.49656	1467.6
303.15 K	1172.08	1.49502	1454.3
308.15 K	1168.54	1.49347	1441.4
313.15 K	1165.04	1.49176	1428.8
318.15 K	1161.52	1.49008	1416.5
323.15 K	1157.99	1.48842	1404.4

CCCCn1cc[n+](C)c1.[Br-] [1-butyl-3-methylimidazolium bromide]
Metastable liquid
Conditions	mass density, [1] [kg/m3]	refractive index, [2]	speed of sound, [1] [m/s]
293.15 K	1293.44	1.54699	1675.2
298.15 K	1290.02	1.54575	1665.7
303.15 K	1286.59	1.54445	1656
308.15 K	1283.16	1.54312	1646
313.15 K	1279.72	1.54186	1636.1
318.15 K	1276.28	1.54052	1626.7
323.15 K	1272.84	1.53928	1616.8
